Measured values reported in ChEMBL document CHEMBL4330101, “Identification of BR101549 as a lead candidate of non-TZD PPARγ agonist for the treatment of type 2 diabetes: Proof-of-concept evaluation and SAR” (Bioorg Med Chem Lett, 2019).

Biological target: T1, Peroxisome proliferator-activated receptor gamma (Homo sapiens) (UniProt P37231)
T1 sequence (whole entry): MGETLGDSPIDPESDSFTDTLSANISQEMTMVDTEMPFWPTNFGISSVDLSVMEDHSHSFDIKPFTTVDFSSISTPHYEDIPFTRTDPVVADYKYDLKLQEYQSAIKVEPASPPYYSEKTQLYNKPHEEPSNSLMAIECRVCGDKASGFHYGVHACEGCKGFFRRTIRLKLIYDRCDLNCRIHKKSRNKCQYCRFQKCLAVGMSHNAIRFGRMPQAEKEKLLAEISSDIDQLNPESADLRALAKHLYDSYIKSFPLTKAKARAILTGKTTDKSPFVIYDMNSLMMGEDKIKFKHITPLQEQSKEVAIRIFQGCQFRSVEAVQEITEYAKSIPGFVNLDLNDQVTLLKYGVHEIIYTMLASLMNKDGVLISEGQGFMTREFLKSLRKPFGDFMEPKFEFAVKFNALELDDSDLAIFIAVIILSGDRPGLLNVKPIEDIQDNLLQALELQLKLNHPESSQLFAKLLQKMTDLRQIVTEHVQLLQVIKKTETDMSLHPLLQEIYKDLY
Assay: Agonist activity at human PPARgamma at 1 uM relative to pioglitazone
Conditions: not given
In the case of CCCCc1nc(C2CC2)c(CC(=O)OC)c(=O)n1Cc1ccc(-c2ccccc2-c2noc(=O)[nH]2)cc1, the max activation is reported as 83%.
With CCCCc1nc(C(C)C)c(CC(=O)OC2CCCCC2)c(=O)n1Cc1ccc(-c2ccccc2-c2noc(=O)[nH]2)cc1 the max activation was 88%.
CCCCc1nc(C)c(CC(=O)OC)c(=O)n1Cc1ccc(-c2ccccc2-c2noc(=O)[nH]2)cc1 gave a max activation of 74%.
With CCCCc1nc(C(C)C)c(CC(=O)OCCC)c(=O)n1Cc1ccc(-c2ccccc2-c2noc(=O)[nH]2)cc1 the max activation was 133%.
CCCCc1nc(C)c(CC(=O)OC2CC2)c(=O)n1Cc1ccc(-c2ccccc2-c2noc(=O)[nH]2)cc1 showed a max activation of 62%.
CCCCc1nc(C)c(CC(=O)OCC(C)C)c(=O)n1Cc1ccc(-c2ccccc2-c2noc(=O)[nH]2)cc1 showed a max activation of 114%.
CCCCc1nc(C)c(CC(=O)OCC2CCCCC2)c(=O)n1Cc1ccc(-c2ccccc2-c2noc(=O)[nH]2)cc1 showed a max activation of 90%.
CC#CCOC(=O)Cc1c(C(C)C)nc(CCCC)n(Cc2ccc(-c3ccccc3-c3noc(=O)[nH]3)cc2)c1=O showed a max activation of 103%.
Compound CCCCc1nc(C(C)C)c(CC(=O)OCC(F)(F)F)c(=O)n1Cc1ccc(-c2ccccc2-c2noc(=O)[nH]2)cc1 has a max activation of 65%.
In the case of CCCCc1nc(C)c(CC(=O)OC2CCCCC2)c(=O)n1Cc1ccc(-c2ccccc2-c2noc(=O)[nH]2)cc1, the max activation is reported as 98%.
CCCCc1nc(C2CC2)c(CC(=O)OC(C)C)c(=O)n1Cc1ccc(-c2ccccc2-c2noc(=O)[nH]2)cc1 showed a max activation of 87%.
In the case of CCCCCOC(=O)Cc1c(C(C)C)nc(CCCC)n(Cc2ccc(-c3ccccc3-c3noc(=O)[nH]3)cc2)c1=O, the max activation is reported as 54%.
CCCCc1nc(C)c(CC(=O)OC(C)C)c(=O)n1Cc1ccc(-c2ccccc2-c2noc(=O)[nH]2)cc1 showed a max activation of 114%.

Tested on: not listed separately
Assay: Stability in human liver microsomes assessed as parent compound remaining after 30 mins
Type: ADME, Microsome
Conditions: read-out: Stability
For CCCCc1nc(C(C)(C)C)c(CC(=O)OCC)c(=O)n1Cc1ccc(-c2ccccc2-c2noc(=O)[nH]2)cc1, the remaining at 0.5 h was 8.2%.
In the case of CCCCc1nc(C2CC2)c(CC(=O)OC)c(=O)n1Cc1ccc(-c2ccccc2-c2noc(=O)[nH]2)cc1, the remaining at 0.5 h is reported as 24.4%.
In the case of CCCCc1nc(C(C)C)c(CC(=O)OC2CCCCC2)c(=O)n1Cc1ccc(-c2ccccc2-c2noc(=O)[nH]2)cc1, the remaining at 0.5 h is reported as 13.3%.
Compound CCCCc1nc(C)c(CC(=O)OC)c(=O)n1Cc1ccc(-c2ccccc2-c2noc(=O)[nH]2)cc1 has a remaining at 0.5 h of 69.6%.
CCCCc1nc(C(C)C)c(CC(=O)OCCC)c(=O)n1Cc1ccc(-c2ccccc2-c2noc(=O)[nH]2)cc1 gave a remaining at 0.5 h of 7.2%.
For CCCCc1nc(C)c(CC(=O)OC2CC2)c(=O)n1Cc1ccc(-c2ccccc2-c2noc(=O)[nH]2)cc1, the remaining at 0.5 h was 34.5%.
For CCCCc1nc(C)c(CC(=O)OCC(C)C)c(=O)n1Cc1ccc(-c2ccccc2-c2noc(=O)[nH]2)cc1, the remaining at 0.5 h was 2.4%.
For CCCCc1nc(C)c(CC(=O)OCC2CCCCC2)c(=O)n1Cc1ccc(-c2ccccc2-c2noc(=O)[nH]2)cc1, the remaining at 0.5 h was 11.5%.
For CC#CCOC(=O)Cc1c(C(C)C)nc(CCCC)n(Cc2ccc(-c3ccccc3-c3noc(=O)[nH]3)cc2)c1=O, the remaining at 0.5 h was 13.7%.
Compound CCCCc1nc(C(C)C)c(CC(=O)OC(CC)CC)c(=O)n1Cc1ccc(-c2ccccc2-c2noc(=O)[nH]2)cc1 has a remaining at 0.5 h of 7.7%.
CCCCc1nc(C)c(CC(=O)OC2CCCCC2)c(=O)n1Cc1ccc(-c2ccccc2-c2noc(=O)[nH]2)cc1 gave a remaining at 0.5 h of 3.9%.
With CCCCc1nc(C2CC2)c(CC(=O)OC(C)C)c(=O)n1Cc1ccc(-c2ccccc2-c2noc(=O)[nH]2)cc1 the remaining at 0.5 h was 9.9%.
With CCCCCOC(=O)Cc1c(C(C)C)nc(CCCC)n(Cc2ccc(-c3ccccc3-c3noc(=O)[nH]3)cc2)c1=O the remaining at 0.5 h was 10.6%.
Compound CCCCc1nc(C)c(CC(=O)OC(C)C)c(=O)n1Cc1ccc(-c2ccccc2-c2noc(=O)[nH]2)cc1 has a remaining at 0.5 h of 17.5%.

Biological target: T2, Peroxisome proliferator-activated receptor gamma (Homo sapiens, UniProt P37231)
T2 sequence (P37231 whole entry): T1 sequence (whole entry)
Assay: Agonist activity at human PPARgamma
Conditions: not given
For CCCCc1nc(C2CC2)c(CC(=O)OC)c(=O)n1Cc1ccc(-c2ccccc2-c2noc(=O)[nH]2)cc1, the EC50 was 2360 nM.
Work on CCCCc1nc(C(C)C)c(CC(=O)OC2CCCCC2)c(=O)n1Cc1ccc(-c2ccccc2-c2noc(=O)[nH]2)cc1 yielded an EC50 of 730 nM.
With CCCCc1nc(C)c(CC(=O)OC)c(=O)n1Cc1ccc(-c2ccccc2-c2noc(=O)[nH]2)cc1 the EC50 was 7360 nM.
With CCCCc1nc(C(C)C)c(CC(=O)OCCC)c(=O)n1Cc1ccc(-c2ccccc2-c2noc(=O)[nH]2)cc1 the EC50 was 1500 nM.
In the case of CCCCc1nc(C)c(CC(=O)OC2CC2)c(=O)n1Cc1ccc(-c2ccccc2-c2noc(=O)[nH]2)cc1, the EC50 is reported as 3310 nM.
In the case of CCCCc1nc(C)c(CC(=O)OCC(C)C)c(=O)n1Cc1ccc(-c2ccccc2-c2noc(=O)[nH]2)cc1, the EC50 is reported as 1530 nM.
CCCCc1nc(C)c(CC(=O)OCC2CCCCC2)c(=O)n1Cc1ccc(-c2ccccc2-c2noc(=O)[nH]2)cc1 gave an EC50 of 1320 nM.
Work on CC#CCOC(=O)Cc1c(C(C)C)nc(CCCC)n(Cc2ccc(-c3ccccc3-c3noc(=O)[nH]3)cc2)c1=O yielded an EC50 of 1060 nM.
Work on CCCCc1nc(C(C)C)c(CC(=O)OCC(F)(F)F)c(=O)n1Cc1ccc(-c2ccccc2-c2noc(=O)[nH]2)cc1 yielded an EC50 of 2780 nM.
CCCCc1nc(C)c(CC(=O)OC2CCCCC2)c(=O)n1Cc1ccc(-c2ccccc2-c2noc(=O)[nH]2)cc1 showed an EC50 of 1000 nM.
CCCCc1nc(C2CC2)c(CC(=O)OC(C)C)c(=O)n1Cc1ccc(-c2ccccc2-c2noc(=O)[nH]2)cc1 showed an EC50 of 2720 nM.
CCCCCOC(=O)Cc1c(C(C)C)nc(CCCC)n(Cc2ccc(-c3ccccc3-c3noc(=O)[nH]3)cc2)c1=O gave an EC50 of 1090 nM.
For CCCCc1nc(C)c(CC(=O)OC(C)C)c(=O)n1Cc1ccc(-c2ccccc2-c2noc(=O)[nH]2)cc1, the EC50 was 1660 nM.

Tested on: not listed separately
Assay: Stability in mouse liver microsomes assessed as parent compound remaining after 30 mins
Type: ADME, Microsome
Conditions: read-out: Stability
In the case of CCCCc1nc(C(C)(C)C)c(CC(=O)OCC)c(=O)n1Cc1ccc(-c2ccccc2-c2noc(=O)[nH]2)cc1, the remaining at 0.5 h is reported as 14%.
CCCCc1nc(C2CC2)c(CC(=O)OC)c(=O)n1Cc1ccc(-c2ccccc2-c2noc(=O)[nH]2)cc1 gave a remaining at 0.5 h of 16.4%.
In the case of CCCCc1nc(C(C)C)c(CC(=O)OC2CCCCC2)c(=O)n1Cc1ccc(-c2ccccc2-c2noc(=O)[nH]2)cc1, the remaining at 0.5 h is reported as 14.6%.
For CCCCc1nc(C)c(CC(=O)OC)c(=O)n1Cc1ccc(-c2ccccc2-c2noc(=O)[nH]2)cc1, the remaining at 0.5 h was 47.1%.
Compound CCCCc1nc(C(C)C)c(CC(=O)OCCC)c(=O)n1Cc1ccc(-c2ccccc2-c2noc(=O)[nH]2)cc1 has a remaining at 0.5 h of 12.6%.
In the case of CCCCc1nc(C)c(CC(=O)OC2CC2)c(=O)n1Cc1ccc(-c2ccccc2-c2noc(=O)[nH]2)cc1, the remaining at 0.5 h is reported as 12.8%.
For CCCCc1nc(C)c(CC(=O)OCC(C)C)c(=O)n1Cc1ccc(-c2ccccc2-c2noc(=O)[nH]2)cc1, the remaining at 0.5 h was 7.7%.
In the case of CCCCc1nc(C)c(CC(=O)OCC2CCCCC2)c(=O)n1Cc1ccc(-c2ccccc2-c2noc(=O)[nH]2)cc1, the remaining at 0.5 h is reported as 8.9%.
In the case of CC#CCOC(=O)Cc1c(C(C)C)nc(CCCC)n(Cc2ccc(-c3ccccc3-c3noc(=O)[nH]3)cc2)c1=O, the remaining at 0.5 h is reported as 16.4%.
For CCCCc1nc(C(C)C)c(CC(=O)OC(CC)CC)c(=O)n1Cc1ccc(-c2ccccc2-c2noc(=O)[nH]2)cc1, the remaining at 0.5 h was 14.6%.
Compound CCCCc1nc(C)c(CC(=O)OC2CCCCC2)c(=O)n1Cc1ccc(-c2ccccc2-c2noc(=O)[nH]2)cc1 has a remaining at 0.5 h of 10.7%.
CCCCc1nc(C2CC2)c(CC(=O)OC(C)C)c(=O)n1Cc1ccc(-c2ccccc2-c2noc(=O)[nH]2)cc1 gave a remaining at 0.5 h of 14%.
In the case of CCCCCOC(=O)Cc1c(C(C)C)nc(CCCC)n(Cc2ccc(-c3ccccc3-c3noc(=O)[nH]3)cc2)c1=O, the remaining at 0.5 h is reported as 19.7%.
For CCCCc1nc(C)c(CC(=O)OC(C)C)c(=O)n1Cc1ccc(-c2ccccc2-c2noc(=O)[nH]2)cc1, the remaining at 0.5 h was 4%.

Biological target: T1, Peroxisome proliferator-activated receptor gamma (Homo sapiens)
Assay: Agonist activity at human PPARgamma at 1 uM relative to telmisartan
Conditions: not given
For CCCCc1nc(C(C)(C)C)c(CC(=O)OCC)c(=O)n1Cc1ccc(-c2ccccc2-c2noc(=O)[nH]2)cc1, the fold change (FC) was under 1.
